The assay has as its target T1, human clotting factor VIIa (Homo sapiens, UniProt P08709).
T1 construct: a human clotting factor VIIa (hereinafter, “Factor VIIa”) purified sample; purchased Enzyme Research Laboratories HFVIIa
Description: Inhibitory activity against clotting factor VIIa (chromogenic substrate Spectrozyme FVIIa, TF/Factor VIIa enzyme solution). It counts as biochemical. The note with it: human Factor VIIa 5 nmol/L with human TF 10 nmol/L, room temperature 40 minutes, 405 nm. The essentials: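 Human Factor VIIa (5 nmol/L) with human TF (10 nmol/L) in Tris-BSA buffer pH 7.4 containing 15 mmol/L CaCl2 and cephalin, with Spectrozyme FVIIa substrate. Reaction 40 min at room temperature; 4-nitroanilide read at 405 nm. IC50 by non-linear regression over 100 μmol/L–0.1 nmol/L.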
T1 sequence (P08709 213-466 limits assumed): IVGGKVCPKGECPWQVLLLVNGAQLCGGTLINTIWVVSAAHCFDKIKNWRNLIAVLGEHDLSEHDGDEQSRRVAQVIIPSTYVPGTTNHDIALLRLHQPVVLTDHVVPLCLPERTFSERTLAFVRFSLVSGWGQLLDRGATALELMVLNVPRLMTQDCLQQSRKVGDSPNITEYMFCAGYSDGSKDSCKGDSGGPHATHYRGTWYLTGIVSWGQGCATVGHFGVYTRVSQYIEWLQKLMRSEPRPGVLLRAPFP
T1 sequence (P08709 61-212 limits assumed): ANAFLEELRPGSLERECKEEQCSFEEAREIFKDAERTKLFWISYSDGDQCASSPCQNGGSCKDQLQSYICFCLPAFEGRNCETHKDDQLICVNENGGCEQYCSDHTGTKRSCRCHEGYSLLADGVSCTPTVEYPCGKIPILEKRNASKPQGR
T1 sequence (P13726 33-295 partner): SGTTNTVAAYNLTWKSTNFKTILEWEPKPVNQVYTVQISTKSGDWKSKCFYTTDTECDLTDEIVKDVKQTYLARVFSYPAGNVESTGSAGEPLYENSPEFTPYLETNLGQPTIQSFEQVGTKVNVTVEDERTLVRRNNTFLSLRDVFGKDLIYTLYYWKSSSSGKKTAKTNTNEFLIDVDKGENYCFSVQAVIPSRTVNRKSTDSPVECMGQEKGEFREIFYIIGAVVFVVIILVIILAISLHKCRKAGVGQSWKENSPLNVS
In turn, `COc1cc(C(Nc2ccc(C(=N)N)cc2)c2nn(-c3ccccc3C(N)=O)c(=O)[nH]2)cc2c1OCCCO2` (racemic) [Example 214, (R) and (S)-2-{3-[(4-Carbamimidoylphenylamino)-(9-methoxy-3,4-dihydro-2H-benzo[b][1,4]dioxepin-7-yl)methyl]-5-oxo-4,5-dihydro[1,2,4]triazol-1-yl}benzoic acid amide acetate] showed an IC50 of 3.5 nM.
Next, `Cc1cc(OC2CCN(C)CC2)cc(C(Nc2ccc(C(=N)N)cc2)c2nn(-c3ncccn3)c(=O)[nH]2)c1` (racemic) [Example 43, (R) and (S)-4-({[3-methyl-5-(1-methylpiperidin-4-yloxy)phenyl]-(5-oxo-1-pyrimidin-2-yl-4,5-dihydro-1H-[1,2,4]triazol-3-yl)methyl}amino)benzamidine diacetate]: 7.9 nM; `COc1cc(C(Nc2ccc(C(=N)N)cc2)c2nn(-c3ncsc3C(=O)O)c(=O)[nH]2)cc2c1OCOC2` (racemic) [Example 166, (R) and (S)-4-{3-[(4-carbamimidoylphenylamino)-(8-methoxy-4H-benzo[1,3]dioxin-6-yl)methyl]-5-oxo-4,5-dihydro-[1,2,4]triazol-1-yl}thiazole-5-carboxylic acid]: 18.7 nM; `C=Cc1cc(OCCO)cc(C(Nc2ccc(C(=N)N)cc2)c2nn(-c3ncccn3)c(=O)[nH]2)c1` (racemic) [Example 46, (R) and (S)-4-({[3-(2-hydroxyethoxy)-5-vinylphenyl]-(5-oxo-1-pyrimidin-2-yl-4,5-dihydro-1H-[1,2,4]triazol-3-yl)methyl}amino)benzamidine acetate]: 3.8 nM.
Next, `COc1ccc(C(Nc2ccc(C(=N)N)cc2)c2nn(-c3cccnn3)c(=O)[nH]2)cc1OC` (racemic) [Example 149, (R) and (S)-4-{[(3,4-dimethoxyphenyl)-(5-oxo-1-pyridazin-3-yl-4,5-dihydro-1H-[1,2,4]triazol-3-yl)methyl]amino}benzamidine acetate]: 9.2 nM; `C=Cc1cc(O)cc(C(Nc2ccc(C(=N)N)cc2)c2nn(-c3ncccn3)c(=O)[nH]2)c1` (racemic) [Example 47, 4-{[(3-hydroxy-5-vinylphenyl)-(5-oxo-1-pyrimidin-2-yl-4,5-dihydro-1H-[1,2,4]triazol-3-yl)methyl]amino}benzamidine]: 8.9 nM.
Next, `COc1cc(C(Nc2ccc(C(=N)N)cc2)c2nn(-c3ncccc3F)c(=O)[nH]2)cc2c1OCC2` (racemic) [Example 123, (R) and (S)-4-({[1-(3-fluoropyridin-2-yl)-5-oxo-4,5-dihydro-1H-[1,2,4]triazol-3-yl]-(7-methoxy-2,3-dihydrobenzofuran-5-yl)methyl}amino)benzamidine acetate]: 4.6 nM; `COc1cc(C(Nc2ccc(C(=N)N)cc2)c2nn(-c3ncccc3N)c(=O)[nH]2)cc2c1OCOC2` (stereo not shown) [Example 57, 4-({[1-(3-aminopyridin-2-yl)-5-oxo-4,5-dihydro-1H-[1,2,4]triazol-3-yl]-(8-methoxy-4H-benzo[1,3]dioxin-6-yl)methyl}amino)benzamidine acetate]: 8.9 nM.
For the compound `COc1cc(OCCF)cc(C(Nc2ccc(C(=N)N)cc2)c2nn(-c3cccnn3)c(=O)[nH]2)c1` (racemic) [Example 64, (R) and (S)-4-({[3-(2-fluoroethoxy)-5-methoxyphenyl]-(5-oxo-1-pyridazin-3-yl-4,5-dihydro-1H-[1,2,4]triazol-3-yl)methyl}amino)benzamidine acetate], the IC50 was 4.2 nM.
Next, `CCOc1cc(C(Nc2ccc(C(=N)N)cc2)c2nn(-c3ncccc3C)c(=O)[nH]2)ccc1OCCOC` (stereo not shown) [Example 128, 4-({[3-ethoxy-4-(2-methoxyethoxy)phenyl]-[1-(3-methylpyridin-2-yl)-5-oxo-4,5-dihydro-1H-[1,2,4]triazol-3-yl]methyl}amino)benzamidine acetate]: 9.9 nM.

Values taken from US7816522B2, “Triazolone derivatives” (Eisai Co., Ltd., priority 2006, dated 2010).
